The values below come from patent US10813909B2 (THE REGENTS OF THE UNIVERSITY OF CALIFORNIA, priority 2016, dated 2020).

One series has as its system BIRC5. Put plainly: Cardiac glycosides, BIRC5 expression in pancreatic cancer. It is filed as cell-based.
Series [1] concerns patient-derived pancreatic cancer cell line #5 (PDCL-5). Put plainly: Cell viability/proliferation (CellTiter-Glo, Gaussia luciferase), patient-derived line #5. It is filed as cell-based, human. As to conditions: in vitro; metformin 500 μM, simvastatin 4 μM, digoxin 50 nM, alone or combined; paclitaxel 100 nM where added.
The test system of series [2] is patient-derived pancreatic cancer cell line #15 (PDCL-15). Put plainly: Cell viability/proliferation (CellTiter-Glo, Gaussia luciferase), patient-derived line #15. It is filed as cell-based, human. As to conditions: in vitro; metformin 500 μM, simvastatin 4 μM, digoxin 50 nM, alone or combined; paclitaxel 100 nM where added.
Another series has as its system MIA PaCa2 cells. Put plainly: Cell viability/proliferation, MIA PaCa2. It is filed as cell-based, human. As to conditions: in vitro; metformin 500 μM, simvastatin 4 μM, digoxin 50 nM, alone or combined; paclitaxel 100 nM where added.
The next series concerns PANC1 cells. Put plainly: Cell viability/proliferation, PANC1. As to conditions: in vitro; metformin 500 μM, simvastatin 4 μM, digoxin 50 nM, alone or combined; paclitaxel 100 nM where added. It is filed as cell-based, human.
In a further series the test system is AsPC1 cells. Put plainly: Cell viability, AsPC1. It is filed as cell-based, human. As to conditions: in vitro.
A further series concerns Capan2 cells. Put plainly: Cell viability, Capan2. It is filed as cell-based, human. As to conditions: in vitro, with and without paclitaxel.
For series [3], the system named is BIRC5 mRNA. Put plainly: BIRC5 mRNA expression in PDCL5 in vitro. It is filed as cell-based, human.
The test system of series [4] is BIRC5 mRNA. Put plainly: BIRC5 mRNA expression in PDCL15 in vitro. It is filed as cell-based, human.
Another series relates to BIRC5 promoter. Put plainly: High-throughput drug screening with BIRC5 synthetic promoter. It is filed as cell-based, human. As to conditions: high-throughput screening of FDA-approved drug libraries, MIA PaCa2 cells. The text has this:
FIG. 12 is a graph illustrating BIRC5 SP high-throughput (HTS) drug screening in MIA PaCa2 cells, in accordance with one or more embodiments of the invention;
Pancreatic ductal adenocarcinoma (PDAC) is one of the most deadly forms of cancer and almost all patients with PDAC succumb to this lethal disease within months of diagnosis. To fight against PDAC, we utilized the concept of an “actionable gene”, on which action can be taken to alter disease progression or guide choice of therapy. We have identified actionable gene, BIRC5, for PDAC using microarray data sets and our own RNA-Seq data of PDAC patient specimens. […] .

For series [5] the following is noted: mice; cited from earlier work.
The test system of another series is DUSP15 and RHOB. Put plainly: Cell death/apoptosis related gene expression in PDCL5 (RNA-Seq, real-time PCR). As to conditions: PDCL5 in vitro. A general note: In qPCR the cycle at which signal appears reflects the starting amount.
Series [6] deals with pancreatic cancer cell lines. Put plainly: Proliferation, viability and apoptosis of pancreatic cancer cell lines in vitro (line not specified). It is filed as cell-based, human.
Series [7] relates to HK2, LDHA, LDHB, ENO2, ENO1. Put plainly: Transcriptome analysis of glycolysis/TCA cycle/Warburg effect genes in pancreatic cancer cell lines. As to conditions: patient-derived and commercial pancreatic cancer cell lines.

“Also recorded” adds a separate entry of the source.

On to `C[C@]12CC[C@H](O)C[C@H]1CC[C@@H]1[C@@H]2CC[C@]2(C)[C@@H](C3=CC(=O)OC3)CC[C@]12O` [Digitoxigenin], for which the “BIRC5 expression in pancreatic cancer” value in the series with BIRC5 was “inhibit BIRC5 expression”.

For the molecule `C[C@H]1O[C@@H](O[C@H]2[C@@H](O)C[C@H](O[C@H]3[C@@H](O)C[C@H](O[C@H]4CC[C@@]5(C)[C@H](CC[C@@H]6[C@@H]5C[C@@H](O)[C@]5(C)[C@@H](C7=CC(=O)OC7)CC[C@]65O)C4)O[C@@H]3C)O[C@@H]2C)C[C@H](O)[C@@H]1O` [Digoxin, digoxin], the “cell viability / proliferation, patient-derived pancreatic cancer cell #5” value in series [1] was “suppresses; also recorded: suppress”. For the same molecule, the “cell viability / proliferation, patient-derived pancreatic cancer cell #15” value in series [2] is “suppresses; also recorded: suppress”. Moreover, the “cell viability / proliferation, MIA PaCa2” value in the series on MIA PaCa2 cells is listed as “suppresses; also recorded: suppress”. Also, the “cell viability / proliferation, PANC1” value with PANC1 cells is listed as “suppresses; also recorded: suppress”. The “cell viability, AsPC1” value in the series on AsPC1 cells is on record as “suppress”. The “cell viability, Capan2” value in the series on Capan2 cells was “suppress”. In addition, in the series on BIRC5 mRNA [3], the “BIRC5 mRNA expression, PDCL #5” value is listed as “suppress”. Also, the “BIRC5 mRNA expression, PDCL #15” value in the series with BIRC5 mRNA [4] is given as “suppress”. For the same molecule, the “expression from the BIRC5 promoter” value with BIRC5 promoter is “target BIRC5”. Further, in the series on BIRC5, the “BIRC5 expression in pancreatic cancer” value is given as “inhibit BIRC5 expression”. Further, the “Lethal Dose (LD50)” value in [5] was 4 mg/kg. The “cell death/apoptosis related gene expression (DUSP15, RHOB)” value with DUSP15 and RHOB is listed as “do not have an effect”.

Turning to `CC(=O)O[C@H]1C[C@H](O[C@H]2[C@@H](O)C[C@H](O[C@H]3[C@@H](O)C[C@H](O[C@H]4CC[C@@]5(C)[C@H](CC[C@@H]6[C@@H]5C[C@@H](O)[C@]5(C)[C@@H](C7=CC(=O)OC7)CC[C@]65O)C4)O[C@@H]3C)O[C@@H]2C)O[C@H](C)[C@H]1O[C@@H]1O[C@H](CO)[C@@H](O)[C@H](O)[C@H]1O` [Lanatoside C], the “BIRC5 expression in pancreatic cancer” value in the series on BIRC5 was “inhibit BIRC5 expression”.

For the molecule `CC[C@H](C)C(=O)O[C@H]1C[C@@H](C)C=C2C=C[C@H](C)[C@H](CC[C@@H]3C[C@@H](O)CC(=O)O3)[C@H]21` [Lovastatin, lovastatin], the “cell viability / proliferation, MIA PaCa2” value with MIA PaCa2 cells was “suppresses”. Further, the “BIRC5 mRNA expression, PDCL #5” value in the series with BIRC5 mRNA [3] is reported as “suppress”. The “BIRC5 mRNA expression, PDCL #15” value in the series with BIRC5 mRNA [4] is “suppress”.

As to `CN(C)C(=N)N=C(N)N` [Metformin, metformin], the “cell viability / proliferation, patient-derived pancreatic cancer cell #5” value in series [1] is reported as “suppresses; also recorded: suppress”. The “cell viability / proliferation, patient-derived pancreatic cancer cell #15” value in series [2] was “suppresses; also recorded: suppress”. Moreover, in the series with MIA PaCa2 cells, the “cell viability / proliferation, MIA PaCa2” value was “suppresses; also recorded: suppress”. Further, the “cell viability / proliferation, PANC1” value in the series with PANC1 cells was “suppresses; also recorded: suppress”. The “cell viability, AsPC1” value in the series with AsPC1 cells is on record as “suppress”. The “cell viability, Capan2” value with Capan2 cells was “suppress”. Moreover, the “BIRC5 mRNA expression, PDCL #5” value in the series on BIRC5 mRNA [3] was “suppress”. The “BIRC5 mRNA expression, PDCL #15” value with BIRC5 mRNA [4] is recorded as “suppress”. For the same molecule, the “cell proliferation / viability, pancreatic cancer cell lines” value in series [6] is “suppresses”. Also, the “expression from the BIRC5 promoter” value with BIRC5 promoter is “target BIRC5”. Besides, the “cell death/apoptosis related gene expression (DUSP15, RHOB)” value in the series on DUSP15 and RHOB is on record as “do not have an effect”. The “glycolysis / TCA cycle / Warburg effect related gene expression” value in series [7] was “inhibitory effect”.

As to `C[C@@H]1O[C@@H](O[C@H]2C[C@@H](O)[C@]3(CO)[C@H]4[C@H](O)C[C@]5(C)[C@@H](C6=CC(=O)OC6)CC[C@]5(O)[C@@H]4CC[C@]3(O)C2)[C@H](O)[C@H](O)[C@H]1O` [Ouabain, ouabain], in the series with MIA PaCa2 cells, the “cell viability / proliferation, MIA PaCa2” value is “suppresses”. Also, the “BIRC5 expression in pancreatic cancer” value in the series with BIRC5 was “inhibit BIRC5 expression”.

Consider `C[C@]12CC[C@H](O)C[C@H]1CC[C@@H]1[C@@H]2CC[C@]2(C)[C@@H](c3ccc(=O)oc3)CC[C@]12O` [bufalin], for which the “BIRC5 expression in pancreatic cancer” value in the series with BIRC5 is listed as “inhibit BIRC5 expression”.

As for `CC(C)n1c(/C=C/C(O)CC(O)CC(=O)O)c(-c2ccc(F)cc2)c2ccccc21` (centres unmarked) [fluvastatin], the “cell viability / proliferation, MIA PaCa2” value in the series on MIA PaCa2 cells is reported as “suppresses”. In addition, the “BIRC5 mRNA expression, PDCL #5” value in the series on BIRC5 mRNA [3] was “suppress”. For the same molecule, in the series on BIRC5 mRNA [4], the “BIRC5 mRNA expression, PDCL #15” value is recorded as “suppress”.
